Measured values: ChEMBL document CHEMBL3351704, “Synthesis and biological evaluation of 4-oxoquinoline-3-carboxamides derivatives as potent anti-fibrosis agents” (Bioorg Med Chem Lett, 2014)
pIC50: −log10 of the molar value. One block for each compound: values may come before it. The source made the active and inactive calls. The rule behind the calls is not given here.

How the values were obtained:
[1] = test system: NRK-49F; assay: Inhibition of TGF-beta1-induced total collagen accumulation in rat NRK-49F cells at 10 uM; assay type: functional
[2] = test system: Mus musculus; assay: Anti-fibrotic activity in mouse bleomycin-induced lung fibrosis model assessed as reduction in lung injury at 20 mg/kg/day, ip before bleomycin injection by H and E staining; assay type: functional, organism-based
[3] = test system: Mus musculus; assay: Anti-fibrotic activity in mouse bleomycin-induced lung fibrosis model assessed as reduction of lung collagen deposition at 20 mg/kg/day, ip before bleomycin injection by H and E staining; assay type: functional, organism-based
[4] = test system: RAW264.7; assay: Inhibition of LPS-induced TNFalpha production in mouse RAW264.7 cells 10 uM; assay type: functional
[5] = test system: NRK-49F; assay: Inhibition of TGF-beta1-induced total collagen accumulation in rat NRK-49F cells; assay type: functional, cell-based
[6] = test system: Mus musculus; assay: Anti-fibrotic activity in mouse bleomycin-induced lung fibrosis model assessed as reduction in inflammatory infiltrate level at 20 mg/kg/day, ip before bleomycin injection by H and E staining; assay type: functional, organism-based
[7] = test system: NRK-49F; assay: Inhibition of TGF-beta1-induced total collagen accumulation in rat NRK-49F cells at 3 uM by picro-sirius red staining method; assay type: functional, cell-based
[8] = test system: NRK-49F; assay: Inhibition of TGF-beta1-induced total collagen accumulation in rat NRK-49F cells at 5 uM by picro-sirius red staining method; assay type: functional, cell-based
[9] = test system: Mus musculus; assay: Anti-fibrotic activity in mouse bleomycin-induced lung fibrosis model assessed as slowing of body weight loss at 20 mg/kg/day, ip before bleomycin injection measured on day 28; assay type: functional, organism-based
[10] = test system: Mus musculus; assay: Anti-fibrotic activity in mouse bleomycin-induced lung fibrosis model assessed as cumulative proportion of survival at 20 mg/kg/day, ip before bleomycin injection measured on day 28; assay type: functional; settings: 672 h, route intraperitoneal
[11] = test system: Mus musculus; assay: Anti-fibrotic activity in mouse bleomycin-induced lung fibrosis model assessed as reduction in lymphocytes in bronchoalveolar lavage fluid at 20 mg/kg/day, ip before bleomycin injection; assay type: functional; settings: route intraperitoneal
[12] = test system: Mus musculus; assay: Anti-fibrotic activity in mouse bleomycin-induced lung fibrosis model assessed as reduction in neutrophils in bronchoalveolar lavage fluid at 20 mg/kg/day, ip before bleomycin injection; assay type: functional; settings: route intraperitoneal
[13] = test system: Mus musculus; assay: Anti-fibrotic activity in mouse bleomycin-induced lung fibrosis model assessed as reduction in leukocytes in bronchoalveolar lavage fluid at 20 mg/kg/day, ip before bleomycin injection; assay type: functional; settings: route intraperitoneal
[14] = test system: Mus musculus; assay: Anti-fibrotic activity in mouse bleomycin-induced lung fibrosis model assessed as reduction in hydroxyproline level at 20 mg/kg/day, ip before bleomycin injection; assay type: functional

Structure (SMILES): CCCCn1cc(C(=O)Nc2ccc(C(C)(C)C)cc2)c(=O)c2cc(C(C)(C)C)ccc21
inhibition at 10 µM [1]: 16.9%

Structure (SMILES): CC(C)(C)c1cc(C(C)(C)C)c(NC(=O)c2c[nH]c3ccccc3c2=O)cc1O [IVACAFTOR]
inhibition [2]: inactive
inhibition [3]: inactive
inhibition (INH) [4]: 63.2%
pIC50 [5]: 5.40
inhibition [6]: inactive
inhibition at 10 µM [1]: 64.7%

Structure (SMILES): COc1ccc2[nH]cc(C(=O)Nc3cc(O)c(C(C)(C)C)cc3C(C)(C)C)c(=O)c2c1
inhibition at 10 µM [1]: 53.1%

Structure (SMILES): CC(C)(C)c1ccc(NC(=O)c2cn(CCN3CCCCC3)c3ccc(C(C)(C)C)cc3c2=O)cc1
inhibition at 10 µM [1]: 30.1%

Structure (SMILES): CC(C)(C)c1ccc(NC(=O)c2cn(Cc3ccccc3)c3ccc(C(C)(C)C)cc3c2=O)cc1
inhibition at 10 µM [1]: 9.1%

Structure (SMILES): CC(C)(C)c1ccc2[nH]cc(C(=O)Nc3ccc(Cl)cc3)c(=O)c2c1
inhibition at 10 µM [1]: 27.2%

Structure (SMILES): CCc1ccc2[nH]cc(C(=O)Nc3cc(O)c(C(C)(C)C)cc3C(C)(C)C)c(=O)c2c1
inhibition at 10 µM [1]: 55.9%

Structure (SMILES): CC(C)(C)c1cccc(NC(=O)c2c[nH]c3ccc(C(C)(C)C)cc3c2=O)c1
inhibition at 10 µM [1]: 44.8%

Structure (SMILES): CC(C)(C)c1ccc(NC(=O)c2cn(CCCN3CCOCC3)c3ccc(C(C)(C)C)cc3c2=O)cc1
inhibition at 10 µM [1]: 30.2%

Structure (SMILES): Cc1ccc2[nH]cc(C(=O)Nc3cc(O)c(C(C)(C)C)cc3C(C)(C)C)c(=O)c2c1
inhibition at 10 µM [1]: 49.9%

pIC50 [5]: 5.39
Structure (SMILES): CC(C)(C)c1ccc2[nH]cc(C(=O)Nc3ccc(C(C)(C)C)c(N)c3)c(=O)c2c1
inhibition (INH) [4]: 71.3%
inhibition [7]: Active
inhibition at 10 µM [1]: 67.9%

Structure (SMILES): CN1CCN(CCn2cc(C(=O)Nc3ccc(C(C)(C)C)cc3)c(=O)c3cc(C(C)(C)C)ccc32)CC1
inhibition at 10 µM [1]: 46.6%

Structure (SMILES): CCn1cc(C(=O)Nc2ccc(C(C)(C)C)cc2)c(=O)c2cc(C(C)(C)C)ccc21
inhibition at 10 µM [1]: 34.3%

Structure (SMILES): COc1ccc(NC(=O)c2c[nH]c3ccc(C(C)(C)C)cc3c2=O)cc1OC
inhibition at 10 µM [1]: 32.6%

Structure (SMILES): CC(C)(C)c1ccc2[nH]cc(C(=O)Nc3ccc(C(C)(C)C)c([N+](=O)[O-])c3)c(=O)c2c1
inhibition (INH) [4]: 47.7%
inhibition at 10 µM [1]: 75.7%

pIC50 [5]: 5.64
Structure (SMILES): CC(C)(C)c1ccc(NC(=O)c2cn(CCN3CCOCC3)c3ccc(C(C)(C)C)cc3c2=O)cc1
inhibition [8]: Active
inhibition (INH) [4]: 69.5%
inhibition [7]: Active
inhibition at 10 µM [1]: 71.1%

Structure (SMILES): CC(C)(C)c1ccc2[nH]cc(C(=O)Nc3cc(O)c(C(C)(C)C)cc3C(C)(C)C)c(=O)c2c1
inhibition (INH) [4]: 45.7%
inhibition at 10 µM [1]: 73.8%

Structure (SMILES): COc1ccccc1NC(=O)c1c[nH]c2ccc(C(C)(C)C)cc2c1=O
inhibition at 10 µM [1]: 47.9%

Structure (SMILES): CN1CCN(CCCn2cc(C(=O)Nc3ccc(C(C)(C)C)cc3)c(=O)c3cc(C(C)(C)C)ccc32)CC1
inhibition at 10 µM [1]: 52.1%

Structure (SMILES): CC(C)(C)c1cc(C(C)(C)C)c(NC(=O)c2c[nH]c3ccc(F)cc3c2=O)cc1O
inhibition at 10 µM [1]: 51.6%

Structure (SMILES): CCc1ccc(NC(=O)c2c[nH]c3ccc(C(C)(C)C)cc3c2=O)cc1
inhibition at 10 µM [1]: 19.4%

Structure (SMILES): COc1cc(NC(=O)c2c[nH]c3ccc(C(C)(C)C)cc3c2=O)cc(OC)c1OC
inhibition [2]: Active
inhibition [8]: Active
Activity [9]: Active
survival at 20 mg/kg/day [10]: 72.2%
inhibition in vivo at 20 mg/kg/day [11]: 15.8%
inhibition in vivo at 20 mg/kg/day [12]: 57.7%
inhibition in vivo at 20 mg/kg/day [13]: 54.8%
inhibition [3]: Active
inhibition (INH) [4]: 70.8%
pIC50 [5]: 5.60
inhibition [6]: Active
inhibition in vivo at 20 mg/kg/day ([14]; route intraperitoneal): 52.4%
inhibition [7]: Active
inhibition at 10 µM [1]: 77.1%

Structure (SMILES): COc1ccc(NC(=O)c2c[nH]c3ccc(C(C)(C)C)cc3c2=O)cc1
inhibition at 10 µM [1]: 23.5%

Structure (SMILES): CC(C)(C)c1ccc(NC(=O)c2c[nH]c3ccc(C(C)(C)C)cc3c2=O)cc1
inhibition [2]: inactive
Activity [9]: Active
survival at 20 mg/kg/day [10]: 83.3%
inhibition in vivo at 20 mg/kg/day [11]: 33.6%
inhibition in vivo at 20 mg/kg/day [12]: 39.7%
inhibition in vivo at 20 mg/kg/day [13]: 40.3%
inhibition [3]: inactive
inhibition (INH) [4]: 61.6%
pIC50 [5]: 5.70
inhibition [6]: inactive
inhibition [14]: Active
inhibition [7]: Active
inhibition at 10 µM [1]: 81%

Structure (SMILES): CC(C)(C)c1ccc2[nH]cc(C(=O)Nc3ccc(F)cc3)c(=O)c2c1
inhibition at 10 µM [1]: 23.5%

Structure (SMILES): CC(C)(C)c1ccc(NC(=O)c2cn(CCN3CCCC3)c3ccc(C(C)(C)C)cc3c2=O)cc1
inhibition at 10 µM [1]: 44.8%

Structure (SMILES): Cc1ccc(NC(=O)c2c[nH]c3ccc(C(C)(C)C)cc3c2=O)cc1
inhibition at 10 µM [1]: 28.9%

Structure (SMILES): CC(C)(C)c1ccc2[nH]cc(C(=O)Nc3cccc(Cl)c3)c(=O)c2c1
inhibition at 10 µM [1]: 30.5%

Structure (SMILES): CC(C)(C)c1ccc2[nH]cc(C(=O)Nc3ccccc3C(C)(C)C)c(=O)c2c1
inhibition at 10 µM [1]: 54.3%

Structure (SMILES): CC(C)(C)c1ccc(NC(=O)c2cn(CCCl)c3ccc(C(C)(C)C)cc3c2=O)cc1
inhibition at 10 µM [1]: 35.8%
